Laboratory results taken from US11109593B2, “Isoxazolin-5-one derivative and herbicide containing same as active ingredient” (HOKKO CHEMICAL INDUSTRY CO., LTD., priority 2017, dated 2021).

Columns and labels:
Type in all cases: in vivo
[1] = system: broad leaf weeds (Lindernia pyxidaria and Monochoria vaginalis); experiment: Test Example 1: herbicidal effect test by treatment of rice paddy soil (immediately after seeding); details: 120 g/10a active ingredient, dry weight vs untreated area, 14 days after treatment
Method in brief: (§1)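 Values are herbicidal rates (%) derived from average plant dry weight in treated versus untreated pots 14 days after treatment, run in duplicate. Treatment was a water-diluted emulsion dropped into flooded paddy soil right after sowing, at 120 g active ingredient per 10 ares.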

[2] = system: Scirpus juncoides; experiment: as above; details: 120 g/10a active ingredient, dry weight vs untreated area, 14 days after treatment
Method in brief: as §1

[3] = system: Echinochloa crus-galli; experiment: as above; details: 120 g/10a active ingredient, dry weight vs untreated area, 14 days after treatment
Method in brief: as §1

[4] = system: Chenopodium album; experiment: Test Example 4: herbicidal effect test by treatment of leave and stem in dry field farming (seven days after seeding); details: 120 g/10a active ingredient; emulsion sprayed seven days after seeding; evaluated 14 days after treatment
Method in brief: (§2)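 Twenty seeds per species were mixed into the top 1 cm of alluvial soil in 36 cm^2 pots; emulsions were sprayed seven days after seeding at 100 L per 10 ares (120 g active ingredient per 10 ares). Herbicidal rate (%) = {1 − treated/untreated mean dry weight} × 100, 14 days after treatment, duplicate.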

[5] = system: Echinochloa crus-galli; experiment: as above; details: 120 g/10a active ingredient; emulsion sprayed seven days after seeding; evaluated 14 days after treatment
Method in brief: as §2

[6] = system: Amaranthus viridis; experiment: as above; details: 120 g/10a active ingredient; emulsion sprayed seven days after seeding; evaluated 14 days after treatment
Method in brief: as §2

[7] = system: southern crabgrass; experiment: as above; details: 120 g/10a active ingredient; emulsion sprayed seven days after seeding; evaluated 14 days after treatment
Method in brief: as §2

[8] = system: Chenopodium album; experiment: Test Example 3: herbicidal effect test by treatment of dry field farming soil (one day after seeding); details: 120 g/10a active ingredient, evaluated 14 days after treatment
Method in brief: (§3)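 Compound emulsions are sprayed on the soil surface one day after sowing (120 g a.i. per 10 ares) before weeds emerge. Effect is expressed as percent dry-weight reduction versus untreated controls 14 days post-treatment.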

[9] = system: Echinochloa crus-galli; experiment: as above; details: 120 g/10a active ingredient, evaluated 14 days after treatment
Method in brief: as §3

[10] = system: Amaranthus viridis; experiment: as above; details: 120 g/10a active ingredient, evaluated 14 days after treatment
Method in brief: as §3

[11] = system: southern crabgrass; experiment: as above; details: 120 g/10a active ingredient, evaluated 14 days after treatment
Method in brief: as §3

[12] = system: broad leaf weeds (Lindernia pyxidaria and Monochoria vaginalis); experiment: Test Example 2: herbicidal effect test by treatment during growing period in paddy rice cultivation (seven days after seeding); details: 120 g/10a active ingredient, assessed 14 days after treatment, dry weight vs untreated area
Method in brief: (§4)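 Greenhouse flooded-pot test, seeds sown in puddled paddy soil; emulsion applied into water 7 d after seeding, 120 g a.i./10 a. Dry-weight-based herbicidal rate at 14 d, n=2.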

[13] = system: Scirpus juncoides; experiment: as above; details: 120 g/10a active ingredient, assessed 14 days after treatment, dry weight vs untreated area
Method in brief: as §4

[14] = system: Echinochloa crus-galli; experiment: as above; details: 120 g/10a active ingredient, assessed 14 days after treatment, dry weight vs untreated area
Method in brief: as §4

SMILES | Herbicidal rate (%) Lindernia pyxidaria [1] [%] | Herbicidal rate (%) Monochoria vaginalis [1] [%] | Herbicidal rate (%) Scirpus juncoides [2] [%] | Herbicidal rate (%) Echinochloa crus-galli [3] [%] | herbicidal effect (herbicidal rate), Chenopodium album [4] [%] | herbicidal effect (herbicidal rate), Echinochloa crus-galli [5] [%] | herbicidal effect (herbicidal rate), Amaranthus viridis [6] [%] | herbicidal effect (herbicidal rate), southern crabgrass [7] [%] | herbicidal rate, Chenopodium album [8] [%] | herbicidal rate, Echinochloa crus-galli [9] [%] | herbicidal rate, Amaranthus viridis [10] [%] | herbicidal rate, southern crabgrass [11] [%] | Herbicidal rate (%) Lindernia pyxidaria [12] [%] | Herbicidal rate (%) Monochoria vaginalis [12] [%] | Herbicidal rate (%) Scirpus juncoides [13] [%] | Herbicidal rate (%) Echinochloa crus-galli [14] [%]
Cc1c(Cc2ccccc2NS(=O)(=O)C(F)(F)F)c(=O)on1CC1CCCO1 (stereo not shown) [Compound 1-230] | 100 | 80 | 90 | 100 | 40 | 80 | 40 | 80 | 60 | 100 | 60 | 100 | 70 | 90 | 90 | 90
Cc1c(Cc2ccccc2NS(=O)(=O)C(F)(F)F)c(=O)on1CCC(C)C [Compound 1-115] | 90 | 90 | 90 | 100 | 40 | 60 | 40 | 40 | 100 | 90 | 100 | 90 | 80 | 80 | 90 | 90
COCC(C)n1oc(=O)c(Cc2ccccc2N(C(=O)C2CC2)S(=O)(=O)C(F)(F)F)c1C (stereo not shown) [Compound 1-412] | 90 | 90 | 90 | 90 | 40 | 90 | 40 | 90 | 90 | 90 | 90 | 90 | 90 | 90 | 90 | 90
Cc1c(Cc2ccccc2NS(=O)(=O)C(F)(F)F)c(=O)on1CC1CCCCC1 [Compound 1-146] | 100 | 100 | 100 | 100 | 40 | 80 | 50 | 40 | 90 | 100 | 90 | 100 | 70 | 90 | 90 | 100
Cc1c(Cc2ccccc2N(C(=O)CC(C)C)S(=O)(=O)C(F)(F)F)c(=O)on1C(C)c1ccccc1 (stereo not shown) [Compound 1-359] | 90 | 90 | 90 | 90 | 40 | 90 | 40 | 90 | 90 | 90 | 90 | 90 | 90 | 90 | 90 | 90
CCOC(=O)N(c1ccccc1Cc1c(C)n(C(C)COC)oc1=O)S(=O)(=O)C(F)(F)F (stereo not shown) [Compound 1-615] | 90 | 90 | 90 | 90 | 40 | 90 | 40 | 90 | 90 | 90 | 90 | 90 | 90 | 90 | 90 | 90
Cc1c(Cc2ccccc2NS(=O)(=O)C(F)(F)F)c(=O)on1C(c1ccccc1)C(C)C (stereo not shown) [Compound 1-213] | 90 | 90 | 90 | 100 | 50 | 90 | 40 | 90 | 100 | 100 | 100 | 100 | 70 | 80 | 80 | 90
CCOC(=O)N(c1ccccc1Cc1c(C)n(CCSC)oc1=O)S(=O)(=O)C(F)(F)F [Compound 1-620] | 90 | 90 | 90 | 90 | 40 | 90 | 40 | 90 | 90 | 90 | 90 | 90 | 90 | 90 | 90 | 90
CCCC(CC)n1oc(=O)c(Cc2ccccc2NS(=O)(=O)C(F)(F)F)c1C (stereo not shown) [Compound 1-110] | 100 | 100 | 100 | 100 | 50 | 90 | 60 | 90 | 80 | 90 | 80 | 90 | 80 | 100 | 80 | 100
Cc1c(Cc2ccccc2N(C(=O)c2ccccc2)S(=O)(=O)C(F)(F)F)c(=O)on1C(C)(C)C [Compound 1-473] | 90 | 90 | 90 | 90 | 40 | 90 | 40 | 90 | 90 | 90 | 90 | 90 | 90 | 90 | 90 | 90
